Patent US20050043331A1, “Substituted 3-(2,5-disubstituted)pyridyl-4-aryl pyrroles for treating inflammatory diseases” (priority 2002, published 2005)

Assays:
TNF-α [1] = assay: In-vitro whole cell assay for TNF-α inhibition (LPS-stimulated PBMC, ELISA); type: cell-based; settings: TNF-α by ELISA
Summary of the method: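 Human PBMC from heparinized venous blood (Ficoll-Hypaque), 1.67×10^6/mL in low-endotoxin RPMI/1% FCS, preincubated with compound 1 h at 37° C, then stimulated with LPS (200 ng/mL stock) overnight at 37° C. Duplicate wells. Supernatant TNF-α quantified by ELISA.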

P38 [2] = target: T1, P38 (Homo sapiens, UniProt Q16539); assay: P38 cell, 1 μM LJ; type: cell-based; parameters: unit not given here
P38 [3] = target: T1, P38; assay: p38 inhibition in-vitro enzyme assay; type: biochemical; settings: recombinant 6×His-p38
Procedure: Purified recombinant 6×His-p38 and GST-ATF2 (both expressed in Baculovirus) were served as enzyme and substrate in our p38 inhibition assay. The enzyme reaction was performed in the anti-GST antibody pre-coated 96-well ELISA plate.
A 96-well ELISA plate was coated with 100 μl/well of anti-GST antibody (from Amersham) at a concentration of […] and incubated overnight at 4° C. The ELISA plate was blocked with 100 μl/well of 1% BSA at 25° C. for at least 2 hours, then the plate was washed with 300 μl PBST. The enzyme reaction was started by adding 10 μl of p38 recombinant protein (0.05 nM in final concentration), 10 μl of compound in desired concentration, 10 μl of substrates (670 μM ATP, 200 nM GST-ATF2 in final concentration) and 70 μl of reaction buffer (50 mM HEPES, pH 7.4, 100 mM NaCl, 10 mM MgCl2) and the mixture was incubated at 37° C. for 30 min. Washing the reaction plate with 3×300 μl/well of PBST stopped the enzyme reaction. Detection of the phosphorylated ATF2 substrate was done by the addition of 100 μl of anti-Pi-ATF2 antibody (from Cell Signaling) at a 1:200 dilution. The mixture was incubated at 25° C. for 30 min. A solution of 100 μl of HRP-conjugated goat anti-rabbit antibody (from Pierce) at a 1:250 dilution was added and the mixture and incubated at 25° C. for 30 min. The plate was washed with 6×300 μI PBST and 100 μl of OPD substrate (from Sigma) was then added. The mixture was incubated at 25° C. for 10 min. before adding 100 μl of 3 N H2SO4. The plate was read at 490 nm.
The % inhibition of each test compound was calculated by the following formula: % inhibition=[1−(sample−BKG)/(CTRL−BKG)]×100. The IC50 of each test compound was determined by a triplicate-8 point dose titration curve by Prism GraphPad program. […]

TNF-α [4] = assay: In vivo rodent assay for inhibition of LPS-induced TNF-α production; parameters: species or system Mice (BALB/cJ females); settings: Mus musculus, po, 0.5 h, 10 mg/kg oral, 0.5 h, read-out: Mouse 10 mg/kg % inhib 0.5 h
Summary of the method: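 Female BALB/cJ mice or male Lewis rats, fasted 30 min, received compound orally (mg/kg) at various times before intraperitoneal LPS at 1 mg/kg. Blood was collected by cardiac puncture 1 h after LPS, and serum TNF-α was quantified by species-specific ELISA.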

T1 sequence (Q16539 whole entry): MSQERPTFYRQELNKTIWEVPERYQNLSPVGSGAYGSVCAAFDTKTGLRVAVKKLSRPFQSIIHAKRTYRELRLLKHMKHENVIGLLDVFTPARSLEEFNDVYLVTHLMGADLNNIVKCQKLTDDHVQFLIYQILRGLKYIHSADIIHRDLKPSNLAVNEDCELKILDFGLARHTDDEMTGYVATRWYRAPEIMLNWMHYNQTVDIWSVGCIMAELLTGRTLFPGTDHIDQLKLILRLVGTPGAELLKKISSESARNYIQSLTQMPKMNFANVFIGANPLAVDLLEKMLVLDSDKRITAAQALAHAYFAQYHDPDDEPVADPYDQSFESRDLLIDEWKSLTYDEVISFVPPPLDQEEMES

Compound	IC50 (TNF-α [1])	P38 cell 1 μM LJ (P38 [2])	IC50 (P38 [3])	inhibition in vivo at 10 mg/kg (TNF-α [4])
CCOC(=O)c1[nH]cc(-c2ccncc2)c1-c1cc(F)cc(F)c1 [Cpd 62]	0.114 µM	0	3.47 µM	-14%
CCCc1c(-c2ccnc(N[C@@H](C)COC)n2)c(-c2ccc(F)cc2)cn1CCN1CCOCC1 [Cpd 65]	0.001 µM	102	0.021 µM	-1%
CCOC(=O)c1c(-c2cc(F)cc(F)c2)c(-c2ccncc2)cn1C [Cpd 64]	0.033 µM	7	8.69 µM	-31%
CCCc1[nH]cc(-c2ccc(F)cc2)c1-c1ccnc(N[C@@H](C)COC)n1 [Cpd 61]	0.086 µM	91	0.005 µM	-35%
Fc1ccc(-c2c[nH]c(CNCc3ccncc3)c2-c2ccncc2)cc1 [Cpd 74]	0.074 µM	25	0.4 µM	47%
CCOC(=O)c1c(-c2ccc(F)c(F)c2)c(-c2ccncc2)c(Br)n1C [Cpd 70]	2.72 µM	12	> 10 µM	-36%
Cn1cc(-c2ccc(F)cc2)c(-c2ccncc2)c1N1CCNCC1 [Cpd 78]	0.015 µM	61	2.02 µM	75%
CCOC(=O)c1[nH]cc(-c2ccncc2)c1-c1ccc(F)c(F)c1 [Cpd 69]	0.56 µM	17	> 10 µM	-32%

The next lines start with results.

IC50 (TNF-α [1])	P38 cell 1 μM LJ (P38 [2])	IC50 (P38 [3])	Compound	inhibition in vivo at 10 mg/kg (TNF-α [4])
0.066 µM	20	> 10 µM	COC(=O)c1c(-c2ccc(F)cc2)c(-c2ccncc2)c(N2CCc3ccccc3C2)n1C [Cpd 93]	32%
0.016 µM	22	> 10 µM	CCOC(=O)c1c(-c2ccc(F)cc2)c(-c2ccncc2)c(N2CCNCC2)n1C [Cpd 96]	79%
0.067 µM	21	> 10 µM	CCC(=O)c1c(-c2ccc(F)cc2)c(-c2ccncc2)c(N2CCNCC2)n1C [Cpd 106]	32%
0.05 µM	2	> 10 µM	COC(=O)c1c(-c2ccc(F)cc2)c(-c2ccncc2)c(NCCN2CCOCC2)n1C [Cpd 5]	44%
0.118 µM	12	> 10 µM	COC(=O)c1c(-c2ccc(F)cc2)c(-c2ccncc2)c(Cc2ccc(N(C)C)cc2)n1C [Cpd 102]	15%
